ChEMBL document CHEMBL2163248, “Classification of inhibitors of hepatic organic anion transporting polypeptides (OATPs): influence of protein expression on drug-drug interactions” (J Med Chem, 2012)

Legend:
[1] = molecular target: T1, Solute carrier organic anion transporter family member 2B1 (Homo sapiens, UniProt O94956); assay: Inhibition of human liver OATP2B1 expressed in HEK293 Flp-In cells assessed as reduction in [3H]E3S uptake at 20 uM incubated for 5 mins by scintillation counting; settings: hek293, 5 min
T1 sequence (O94956 whole entry): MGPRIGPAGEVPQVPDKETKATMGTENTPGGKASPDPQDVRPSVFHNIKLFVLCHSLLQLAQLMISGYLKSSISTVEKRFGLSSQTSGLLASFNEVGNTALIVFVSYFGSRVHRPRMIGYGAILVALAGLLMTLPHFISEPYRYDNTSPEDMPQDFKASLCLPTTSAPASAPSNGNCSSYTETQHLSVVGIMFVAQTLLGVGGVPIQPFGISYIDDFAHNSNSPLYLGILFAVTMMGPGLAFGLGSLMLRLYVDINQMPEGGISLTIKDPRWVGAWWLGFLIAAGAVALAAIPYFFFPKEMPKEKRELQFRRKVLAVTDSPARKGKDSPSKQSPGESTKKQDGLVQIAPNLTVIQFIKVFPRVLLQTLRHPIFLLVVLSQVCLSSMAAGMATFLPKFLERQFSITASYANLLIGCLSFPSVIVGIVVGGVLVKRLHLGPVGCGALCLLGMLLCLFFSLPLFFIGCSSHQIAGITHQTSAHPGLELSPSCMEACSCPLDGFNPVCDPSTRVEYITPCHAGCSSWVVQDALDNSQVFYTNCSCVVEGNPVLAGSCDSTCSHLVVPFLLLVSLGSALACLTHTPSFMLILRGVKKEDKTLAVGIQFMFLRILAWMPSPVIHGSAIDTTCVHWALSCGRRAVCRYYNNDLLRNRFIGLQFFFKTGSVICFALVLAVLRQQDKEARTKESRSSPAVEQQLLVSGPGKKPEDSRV

[2] = molecular target: T2, Solute carrier organic anion transporter family member 1B1 (Homo sapiens, UniProt Q9Y6L6); assay: Inhibition of human liver OATP1B1 expressed in HEK293 Flp-In cells assessed as reduction in E17-betaG uptake at 20 uM by scintillation counting; settings: hek293, 20 µM
T2 sequence (Q9Y6L6 whole entry): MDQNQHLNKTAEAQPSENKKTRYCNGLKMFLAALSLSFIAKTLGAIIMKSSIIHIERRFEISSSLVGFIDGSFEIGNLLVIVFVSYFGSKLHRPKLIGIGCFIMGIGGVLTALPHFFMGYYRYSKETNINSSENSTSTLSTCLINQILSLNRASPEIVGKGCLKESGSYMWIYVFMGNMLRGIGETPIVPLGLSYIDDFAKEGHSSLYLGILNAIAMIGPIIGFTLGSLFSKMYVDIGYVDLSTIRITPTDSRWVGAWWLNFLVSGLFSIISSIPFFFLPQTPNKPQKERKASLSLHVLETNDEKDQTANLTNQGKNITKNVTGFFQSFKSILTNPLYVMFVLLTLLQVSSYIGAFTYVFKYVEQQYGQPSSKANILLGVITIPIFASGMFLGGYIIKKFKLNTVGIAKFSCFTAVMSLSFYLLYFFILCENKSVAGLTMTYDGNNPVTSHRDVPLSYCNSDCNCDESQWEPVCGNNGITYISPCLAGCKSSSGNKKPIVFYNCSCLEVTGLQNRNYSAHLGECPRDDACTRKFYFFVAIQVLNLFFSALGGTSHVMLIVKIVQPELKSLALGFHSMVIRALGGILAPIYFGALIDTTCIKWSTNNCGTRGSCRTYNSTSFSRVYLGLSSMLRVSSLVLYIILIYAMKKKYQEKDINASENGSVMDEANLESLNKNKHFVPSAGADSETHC

[3] = molecular target: T3, Solute carrier organic anion transporter family member 1B3 (Homo sapiens, UniProt Q9NPD5); assay: Inhibition of human liver OATP1B3 expressed in HEK293 Flp-In cells assessed as reduction in [3H]E17-betaG uptake at 20 uM incubated for 5 mins by scintillation counting; settings: hek293, 5 min
T3 sequence (Q9NPD5 whole entry): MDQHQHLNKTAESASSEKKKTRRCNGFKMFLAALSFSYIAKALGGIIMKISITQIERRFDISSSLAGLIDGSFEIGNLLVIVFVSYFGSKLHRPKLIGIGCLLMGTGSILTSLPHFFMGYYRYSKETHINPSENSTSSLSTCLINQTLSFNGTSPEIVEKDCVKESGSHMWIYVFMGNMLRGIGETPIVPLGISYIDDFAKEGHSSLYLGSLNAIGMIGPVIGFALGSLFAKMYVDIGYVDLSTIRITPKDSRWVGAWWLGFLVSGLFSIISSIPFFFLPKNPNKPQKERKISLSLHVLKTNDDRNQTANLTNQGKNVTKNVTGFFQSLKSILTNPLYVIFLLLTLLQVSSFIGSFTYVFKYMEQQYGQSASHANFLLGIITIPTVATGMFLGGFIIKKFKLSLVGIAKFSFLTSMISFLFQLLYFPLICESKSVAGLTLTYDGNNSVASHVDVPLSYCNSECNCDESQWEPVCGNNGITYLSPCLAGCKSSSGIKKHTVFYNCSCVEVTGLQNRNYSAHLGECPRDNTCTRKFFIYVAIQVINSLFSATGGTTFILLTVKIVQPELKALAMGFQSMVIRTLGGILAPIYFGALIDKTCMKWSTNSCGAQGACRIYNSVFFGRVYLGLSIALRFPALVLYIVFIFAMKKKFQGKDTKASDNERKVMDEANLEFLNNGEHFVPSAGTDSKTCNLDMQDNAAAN

Structure (SMILES)	INH [1]	INH [2]	INH [3]
O=C1C[C@@H](c2ccc(O)cc2)Oc2cc(O)cc(O)c21 [NARINGENIN]	32.4%	34.8%	-57.2%
O=C(O)[C@H]1O[C@@H](Oc2cc3oc(-c4ccccc4)cc(=O)c3c(O)c2O)[C@H](O)[C@@H](O)[C@@H]1O [BAICALIN]	59.1%	27.6%	20.9%
CC(C)(C)c1ccc(C(O)CCCN2CCC(C(O)(c3ccccc3)c3ccccc3)CC2)cc1 (stereo not drawn) [TERFENADINE]	3.7%	42.7%	33.3%
Cc1cccc(C)c1OCC(=O)N[C@@H](Cc1ccccc1)[C@@H](O)C[C@H](Cc1ccccc1)NC(=O)[C@H](C(C)C)N1CCCNC1=O [LOPINAVIR]	86.4%	85.8%	84.6%
CC(C)NCC(O)c1ccc(NS(C)(=O)=O)cc1 (stereo not drawn) [SOTALOL]	19%	46.4%	6.6%
C/C=C/C[C@@H](C)C(=O)[C@H]1C(=O)N[C@@H](C(C)C)C(=O)N(C)CC(=O)N(C)[C@@H](CC(C)C)C(=O)N[C@@H](C(C)C)C(=O)N(C)[C@@H](CC(C)C)C(=O)N[C@@H](C)C(=O)N[C@H](C)C(=O)N(C)[C@@H](CC(C)C)C(=O)N(C)[C@@H](CC(C)C)C(=O)N(C)[C@@H](C(C)C)C(=O)N1C [VALSPODAR]	33.1%	96.3%	93.9%
CN(C)CCCN1c2ccccc2CCc2ccccc21 [IMIPRAMINE]	16.9%	26.9%	-2.4%
CO[C@@H]1[C@@H](OC(N)=O)[C@@H](O)[C@H](Oc2ccc3c(O)c(NC(=O)c4ccc(O)c(CC=C(C)C)c4)c(=O)oc3c2C)OC1(C)C [NOVOBIOCIN]	85.6%	58.1%	84.2%
CC(=O)N1CCN(c2ccc(OCC3COC(Cn4ccnc4)(c4ccc(Cl)cc4Cl)O3)cc2)CC1 (stereo not drawn) [KETOCONAZOLE]	44%	53.6%	24.7%
Oc1ncnc2[nH]ncc12 [ALLOPURINOL]	8.4%	-35.6%	10.8%
COc1ccc2c3c([nH]c2c1)[C@H](CC(C)C)N1C(=O)[C@H](CCC(=O)OC(C)(C)C)NC(=O)[C@@H]1C3	78.8%	59.3%	24.2%
O=c1c(-c2ccc(O)cc2)coc2cc(O)ccc12 [DAIDZEIN]	32%	35%	0.7%
COC(=O)C1=C(C)NC(C)=C(C(=O)OC(C)C)C1c1cccc2nonc12 (stereo not drawn) [ISRADIPINE]	12%	47.5%	7.7%
CCc1nn(CCCN2CCN(c3cccc(Cl)c3)CC2)c(=O)n1CCOc1ccccc1 [NEFAZODONE]	61.5%	12%	61.4%
NNC(=O)c1ccncc1 [ISONIAZID]	23.8%	29.9%	18.7%
CC1(C)S[C@@H]2[C@H](NC(=O)Cc3ccccc3)C(=O)N2[C@H]1C(=O)O [PENICILLIN G]	7.6%	8.8%	40.9%
C=C(C)[C@@H]1CCC2=CC(=O)C[C@@H](C)[C@]2(C)C1 [NOOTKATONE]	-72.2%	25.6%	-3.2%
COc1ccc2[nH]c([S+]([O-])Cc3ncc(C)c(OC)c3C)nc2c1 (stereo not drawn) [OMEPRAZOLE]	11.3%	15.9%	29.5%

Structure (SMILES)	INH [1]	INH [2]	INH [3]
CCOc1ccc(NC(C)=O)cc1 [PHENACETIN]	-0.1%	34.2%	-0.9%
COC(=O)N[C@H](C(=O)N[C@@H](Cc1ccccc1)[C@@H](O)CN(Cc1ccc(-c2ccccn2)cc1)NC(=O)[C@@H](NC(=O)OC)C(C)(C)C)C(C)(C)C [ATAZANAVIR]	90.1%	95%	92.6%
CC[N+](CC)(CC)CC [TETRYLAMMONIUM]	6.7%	25.9%	4.9%
CN(C)CCCN1c2ccccc2Sc2ccc(Cl)cc21 [CHLORPROMAZINE]	4.3%	27.1%	22.8%
NC12CC3CC(CC(C3)C1)C2 [AMANTADINE]	17%	26.4%	10%
Cn1c(=O)c2c(ncn2C)n(C)c1=O [CAFFEINE]	3.2%	-1.8%	22.1%
CC(=O)CC(c1ccccc1)c1c(O)c2ccccc2oc1=O (stereo not drawn) [WARFARIN]	31.6%	27.8%	-3.2%
C[C@H](Cn1cnc2c(N)ncnc21)OCP(=O)(O)O [TENOFOVIR ANHYDROUS]	23.3%	18.4%	33.6%
CCOc1cc(CC(=O)N[C@@H](CC(C)C)c2ccccc2N2CCCCC2)ccc1C(=O)O [REPAGLINIDE]	42.2%	88.4%	83.2%
CCc1cccc2cc(C(O)CNC(C)(C)C)oc12 (stereo not drawn) [BUFURALOL]	-7%	-13.9%	23.8%
CN1C(C(=O)Nc2ccccn2)=C(O)c2ccccc2S1(=O)=O [PIROXICAM]	68.3%	16.2%	23.5%
Cc1nnc2n1-c1ccc(Cl)cc1C(c1ccccc1Cl)=NC2 [TRIAZOLAM]	-20.5%	45.7%	18.7%
CN1CCC[C@H]1c1cccnc1 [NICOTINE]	-16.5%	6.9%	11%
Cn1c(=O)c2[nH]cnc2n(C)c1=O.O [THEOPHYLLINE]	-25.5%	0.8%	2.5%
CC[C@]1(O)C[C@@H]2CN(CCc3c([nH]c4ccccc34)[C@@](C(=O)OC)(c3cc4c(cc3OC)N(C)[C@H]3[C@@](O)(C(=O)OC)[C@H](OC(C)=O)[C@]5(CC)C=CCN6CC[C@]43[C@@H]65)C2)C1 [VINBLASTINE]	-9.3%	57.6%	54.3%
COc1c2occc2cc2ccc(=O)oc12 [METHOXSALEN]	-1.6%	38.1%	8.9%
CN(Cc1cnc2nc(N)nc(N)c2n1)c1ccc(C(=O)N[C@@H](CCC(=O)O)C(=O)O)cc1 [METHOTREXATE]	-13.4%	27.4%	17.2%
COc1cc2c(c(OC)c1OC)-c1ccc(OC)c(=O)cc1[C@@H](NC(C)=O)CC2 [COLCHICINE]	24.4%	45.2%	-3.9%
